Source: patent publication US20260356879A1, “CELASTROL DERIVATIVES” (Celloram Inc., priority 2022, published 2026)
Entries after “also recorded” stand apart in the source; their conditions may differ. Read-outs that look alike come from different tables or passages of the source.

Key:
[1] = test system: TNF-α secretion; experiment: TNF-α secretion in BMDMs, LPS + Nigericin; assay type: cell-based, mouse; settings: FIG. 5B
Procedure: This example illustrates a comparative study of CLM-022 and MCC950 in inhibiting NLRP3 inflammasome activity in mouse and human macrophages.
Bone marrow-derived macrophages (BMDMs) were treated with LPS (100 ng/ml) for 3 hours to induce the expression of inflammatory genes, including TNF-α, NLRP3, and pro-IL-1β. Subsequently, the BMDMs were treated with CLM-022 or MCC950 in a dose range of 0-10 μM for 30 minutes. Then, to fully activate NLRP3-dependent inflammasome activity and cytokine secretion, Nigericin (10 μM) was added to the BMDMs for an additional 30 minutes.

[2] = test system: NF-kB; experiment: NF-kB luciferase reporter assay (HepG2 NF-kB-Luc reporter cells, IL-1β stimulated); assay type: cell-based, human; settings: for IC50: Homo sapiens
Procedure: HepG2 NF-kB-Luc reporter cells stimulated with IL-1β (20 ng/ml) and the relative NF-kB luciferase activity (RLU) was determined for each of celastrol (compound 1) and each of the exemplary derivative compounds at the following eight point concentrations: 10 μM, 5 μM, 2.5 μM, 1.25 μM, 0.63 μM, 0.31 μM, 0.16 μM, 0.016 μM, and 0 μM). Assay values were plotted (not shown) and IC50 inhibitory concentrations were calculated after normalization using Prizm 9.0 software.
This example illustrates a study of the anti-inflammatory potential of an exemplary celastrol derivative of the present disclosure (compound 22) using an NF-κB luciferase promoter reporter gene assay in the human liver cancer cell line, HepG2.
NF-kB luciferase reporter assay: The celastrol derivative, compound 22 (prepared as described in Example 13) and the parent molecule, compound 1 (celastrol), were freshly dissolved in DMSO. HepG2 NF-κB reporter cells were seeded (2.5×10^4/well) in 96-well plate and then pre-treated with either compound 22 or compound 1 at the 8-point concentrations of 10, 5, 2.5, 1.25, 0.63, 0.31, 0.16, 0.016, or 0 μM, respectively, and the NF-κB promoter was activated by adding IL-1β (20 ng/ml) to the cells. After 18 hours, the cells were harvested by adding the 1× passive cell lysis buffer (Promega) and followed by measurement of the relative NF-kB luciferase activity (RLU) using GloMax discover microplate reader (Promega). Inhibitory concentrations (IC50) after normalization using Prizm 9.0 software.

[3] = test system: LPS-induced acute inflammation; experiment: LPS-induced septic shock mouse model, cytokine expression in serum (ELISA) and colonic mucosa (qPCR); assay type: in vivo
Procedure: FIG. 4A, and FIG. 4B depict results showing that compound 22 (CLM-022) decreased the production of pro-inflammatory cytokines in the LPS-induced septic shock mouse model as described in Example 17. Compound 1 (CLM-001) and compound 22 (CLM-022) (1 mg/kg) injected intraperitoneally 1 hour prior to septic shock induction by administering sublethal dose of LPS (25 mg/kg, i.p.), mice were sacrificed 4 hours post LPS injection, and subjected to measurement of inflammatory cytokine expression. FIG. 4A depicts plot of data showing that the level of TNF-α decreased in the serum of compound 1 and compound 22 treated mice.
This example illustrates a study of the inhibitory function of an exemplary celastrol derivative of the present disclosure (compound 22) against LPS-induced acute inflammation in vivo, we set up LPS-induced septic shock mouse model (Yu et al., 2017) and detected the expression levels of inflammatory cytokines in colon.
Mice (n=3 per group) were administered intraperitoneally (i.p.) with control vehicle, compound 1 (1 mg/kg), or compound 22 (1 mg/kg). After 1 hour, mice were administered by i.p. injection a sublethal dose of LPS (25 mg/kg). Four hours later, the mice were subjected to blood collection and harvesting colonic mucosa by scraping colon. Cytokine expression was measured by conducting ELISA (Cat #900-T54, PeproTech) for TNF-α on blood serum samples and qPCR for the cytokines, IL-1 (TaqMan, Mm00434228), IL-6 (TaqMan, Mm00446190), TNF-α (TaqMan, 00443258), iNOS (TaqMan, 00440502), on colonic mucosa samples.

[4] = molecular target: T1, NEK7 (Homo sapiens, UniProt Q8TDX7); experiment: DARTS assay: protection of NEK7 from Pronase degradation in THP-1 lysates; assay type: binding; settings: 10 μM, FIG. 6C
T1 construct: DARTS with Pronase, immunoblot
T1 sequence (Q8TDX7 whole entry): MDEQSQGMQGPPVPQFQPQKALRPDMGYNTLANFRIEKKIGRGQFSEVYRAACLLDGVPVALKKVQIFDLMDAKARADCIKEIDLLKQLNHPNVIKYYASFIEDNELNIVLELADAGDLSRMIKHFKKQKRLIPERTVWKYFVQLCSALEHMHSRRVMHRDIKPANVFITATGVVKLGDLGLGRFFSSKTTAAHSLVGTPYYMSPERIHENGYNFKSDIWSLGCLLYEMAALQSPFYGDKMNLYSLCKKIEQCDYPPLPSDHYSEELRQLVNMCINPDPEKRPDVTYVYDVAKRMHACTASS
Excerpt: The NLRP3 inflammasome is composed of a multi-protein complex and the exact molecular mode of NLRP3 activation remains unclear. Currently, there are no NLRP3 inflammasome inhibitors in the clinic, and it is important to identify the mechanism of action and molecular target of potential small molecules that interact with NLRP3. This example illustrates a study of the ability of CLM-022 to protect the NLRP3 molecule as determined using a drug affinity responsive target stability (DARTS) assay. DARTS assay is a robust method to identify small molecule target protein. In case of a drug-target interaction, the small molecule protects target protein from degradation by proteinase (Pronase) whereas free-proteins may be degraded very efficiently in the given condition.
The DARTS assay was performed using THP-1 lysates pretreated with LPS and Nigericin to induce activation of NLRP3 inflammasome. THP-1 cells (1×10^5/mL) were treated with LPS (100 ng/ml) for 3 hours, followed by 10 μM Nigericin for an additional 30 minutes. Pronase (50-500 ng/μg of protein) was added to the lysate with CLM-022 (10 μM) or MCC950 (10 μM) for the indicated time (10-15 min) at room temperature. The protein components of NLRP3 inflammasome were visualized using antibody recognizing NLRP3-Natch domain (FIG. 6A), NLRP-PYD domain (FIG. 6B), or NEK7 protein (FIG. 6C). […]

[5] = test system: NLRP3 inflammasome; experiment: ASC complex formation in THP-1 cells (western blot), LPS+Nigericin; assay type: cell-based, human; settings: THP-1, 50 nM and 100 nM, FIG. 3A
Procedure: This example illustrates a study of the anti-inflammatory potential of an exemplary celastrol derivative of the present disclosure (compound 22) using an NLRP3 inflammasome assay in THP-1, a human monocytic cell line, activated with LPS+Nigericin in the presence of compound 22 or the known NLRP3 inhibitor compound, MCC950 (CAS 256373-96-3), as a benchmark molecule.
Human THP-1 cells were treated with LPS+Nigericin as shown previously (FIG. 2) where increasing dose of compound 1, compound 22, or MCC950 were added as indicated.

Q: `CC1=C(O)C(=O)C=C2C1=CC=C1[C@@]2(C)CC[C@@]2(C)[C@@H]3C[C@](C)(N(C)C(=O)C(=O)N(C)C)CC[C@]3(C)CC[C@]12C` [Compound 22, N′-[(2R,4aS,6aR,6aS,14aS,14bR)-10-hydroxy-2,4a,6a,6a,9,14a-hexamethyl-11-oxo-1,3,4,5,6,13,14,14b-octahydropicen-2-yl]-N,N,N′-trimethyl-oxamide] was tested. Which “suppression of TNF-α secretion” value [1] did it give?
A: neither CLM-022 nor MCC950 suppressed TNF-α secretion

Q: And the IC50 ([2]; HepG2, IL-1β (20 ng/ml), 18 hours, normalized, Example 14, FIG. 1B, read-out: IC50 for NF-κB promoter activity)?
A: 268 nM

Q: What about the IC50 ([2]; HepG2 NF-kB-Luc reporter cells, IL-1β (20 ng/ml), Example 13, read-out: NF-kB IC50) of the same molecule?
A: 268 nM

Q: And the “inhibition of NF-kB inflammatory signaling” value ([2]; IL-1β-induced, HepG2, FIG. 1)?
A: robust inhibitory potential for IL-1β-induced NF-kB inflammatory signaling pathway superior to celastrol (compound 1) at low concentrations; also recorded: robustly inhibits NF-κB inflammatory signaling

Q: What about the “% IC50 relative to Celastrol” value ([2]; relative to celastrol (compound 1)) of the same molecule?
A: 51%

Q: And the “IC50 lower than that of compound 1 by” value ([2]; vs compound 1 (IC50=528 nM), Example 14)?
A: 50%

Q: What about the “level of TNF-α in serum” value ([3]; 1 mg/kg i.p. 1 hour before LPS (25 mg/kg, i.p.), 4 hours post LPS, ELISA, FIG. 4A) of the same molecule?
A: decreased

Q: What about the “gene expression of IL-1β, IL-6, TNF-α, and iNOS in the colon” value ([3]; 1 mg/kg i.p. 1 hour before LPS (25 mg/kg, i.p.), 4 hours post LPS, qPCR, FIG. 4B) of the same molecule?
A: markedly inhibited

Q: And the “inhibition of LPS-induced acute inflammation responses (IL-1, IL-6, TNF-α, iNOS in blood serum and colon mucosa)” value ([3]; 1 mg/kg i.p., LPS 25 mg/kg i.p., FIGS. 4A and 4B)?
A: efficiently suppressed expression of an inflammatory mediator and the inflammatory cytokines including IL-1, IL-6, TNF-α, and INOS in the blood serum and colon mucosa to levels comparable to or lower than the levels observed in the group administered celastrol (Compound 1)

Q: What about the “protection of NEK7 from Pronase-induced degradation” value [4] of the same molecule?
A: did not protect NEK7 from Pronase-induced degradation

Q: What about the ASC complex formation [5] of the same molecule?
A: strongly inhibited this ASC complex formation with an inhibitory capacity that was stronger than that observed for celastrol (compound 1) and MCC950
